Experimental data reported in patent US11833204B2, “Visible light-activatable nanoparticles for cancer immunotherapy and use thereof” (KOREA INSTITUTE OF SCIENCE AND TECHNOLOGY, priority 2021, dated 2023).

Experiment: ROS generation under 671 nm laser (RNO test)
Settings: 10 μM, 671 nm laser 40 mW 250 sec
Description: ROS generation was analyzed by RNO test, where bleaching of N-nitrosodimethylaniline (RNO) by ROS was observed as a decrease in absorbance at 440 nm.
To determine the reactivity of the self-assembled nanoparticles (LT-NPs) to visible light, experimental samples and a comparative sample were prepared as follows. Each sample was mixed with a 10 μM RNO standard solution and irradiated with visible light using a 671 nm laser (SDL-671 series, Shanghai Dream Laser Technology Co., Ltd.) at a power of 40 mW for 250 sec. Absorbances were measured at 440 nm over time while being irradiated with visible light.
Control sample (VPF, control): Verteporfin (VPF) (10 μM) was mixed with physiological saline (1 mL).
Experimental sample 1 (LT-NPs(-Cat-B)): The self-assembled nanoparticles (LT-NPs) (10 μM) prepared in Example 1 were mixed with physiological saline (1 mL).
Experimental sample 2 (LT-NPs(+Cat-B)): The self-assembled nanoparticles (LT-NPs) (10 μM) prepared in Example 1 were mixed with distilled water (200 μL) containing cathepsin B (10 μg) and 1.2 mM histidine. […]
First, the absorbance before laser irradiation was defined as 1 and reduction rates of the absorbance values measured at 440 nm with respect to the absorbance before laser irradiation were calculated. The calculated values were transformed into negative natural logs (−In(y)), which were then multiplied by 100. […]

C=CC1=C(C)/C2=C/C3=NC(Cc4[nH]c(c(CCCCC(=O)OC)c4C)CC4N=C(CC1N2)C(C)=C4CCC(=O)N[C@H](Cc1ccccc1)C(=O)N[C@@H](CCCNC(=N)N)C(=O)N[C@H](CCCNC(=N)N)C(=O)NCC(=O)NC1C[C@@H](OC2C[C@](O)(C(=O)CO)Cc4c(O)c5c(c(O)c42)C(=O)c2c(OC)cccc2C5=O)O[C@@H](C)[C@H]1O)[C@@]1(C)C3=CC=C(C(=O)OC)[C@@H]1C(=O)OC (some centres unmarked) [LT-NPs, VPF-FRRG(SEQ ID NO: 1)-DOX]
amount of ROS generated, relative to verteporfin (VPF) (cleaved with cathepsin B): 80% | reactivity with visible light (ROS generation), stable state (without Cat-B): hardly reactive with visible light
